Measurements from patent publication US20120329854A1, “Methods and Compounds for the Diagnosis and Treatment for Cancer” (UNIVERSITÄTSKLINIKUM FREIBURG, priority 2009, published 2012).
Entries after “also recorded” stand apart in the source; their conditions may differ.

Key:
Type in all cases: cell-based, human
[1] = tested on: H3T6ph at the AREs of the KLK2 and FKBP5 promoters; experiment: ChIP with α-H3T6ph antibody in LNCaP cells; conditions: for androgen-induced phosphorylation of H3T6 at the AREs of the KLK2 and FKBP5 promoters upon knockdown: siRNA transfection three days before harvesting, 1×10^−8 M R1881, versus control siRNA
Method: (§1) ChIP and Re-ChIP experiments were performed as described^3. LNCaP cells were cultured for 15 min (ChIP) or 210 min (Re-ChIP) in the presence or absence of 1×10^−8M R1881 as indicated. Three days before harvesting, cells were transfected with siRNA (control for PKCβI: 5′-[…]-3′(SEQ ID NO 3); PKCβI: 5′-[…]-3′ (SEQ ID NO 4) (FIG. 3 b, c, f-i); control for PRK1: 5′-[…]-3′ (SEQ ID NO 14); PRK1: 5′-[…]-3′ (SEQ ID NO: 15) (FIG. 3 d, e); Invitrogen) using RNAifect (Qiagen) following the manufacturer's instructions. Immunoprecipitation was performed with specific antibodies (α-AR #06-680 lot 33529 (Upstate Biotechnology), α-H3K4me1 #ab8895 lot 535654, α-H3T6ph #ab14102 lot 481643, α-H3 #ab1791 lot 172452, α-PKCβI S660ph #ab23513 lot 596904 (Abcam), α-PKCβI (C-16) #sc-209 lot 481643, (Santa Cruz), α-H3K4me2 #cs-035-100 lot A391001 (Diagenode), α-PRK1^3, and α-LSD1^2) on protein A-Sepharose 4B (GE-Healthcare). For PCR, 2 μl out of 50 μl DNA extract was used. PCR primers for FKBP5 (+351/+443), KLK2 (−343/−90), SCN1A, SCN2A, GAPDH, and U6 were described previously^1, 2, 6, 11.

[2] = tested on: AR, LSD1, PKCβI on AR-regulated genes; experiment: ChIP for occupancy of AR, LSD1 and PKCβI on AR target promoters in LNCaP cells
Method: as §1

[3] = tested on: AR; experiment: Western blot analysis of endogenous AR in LNCaP cells; conditions: siRNA transfection (FIG. 3c, 3e right panels)
Method: Experiments were performed as described^2. Western blots were decorated as indicated.

[4] = tested on: H3K4me2 and H3K4me1 at the KLK2 and FKBP5 promoters; experiment: ChIP with α-H3K4me2 and α-H3K4me1 antibodies in LNCaP cells
Method: as §1

[5] = tested on: PKCβI S660ph at the KLK2 and FKBP5 promoters; experiment: ChIP with α-PKCβI S660ph antibody in LNCaP cells
Method: as §1

## 5′-CAUUGUCCUCGUAAGAGAUGCUAAA-3′ (listed as RNA, chemistry not given here) [siRNA directed against PKCβI]
[1]
  androgen-induced phosphorylation of H3T6 at the AREs of the KLK2 and FKBP5 promoters upon knockdown: blocked; also recorded: blunts
[2]; siRNA transfection (FIG. 3b, c)
  ligand-dependent recruitment of AR and presence of LSD1 on AR-regulated genes upon knockdown: does neither affect
[3]
  levels of endogenous AR upon knockdown: does not affect
[4]; in the absence of R1881 (FIG. 3f, g)
  H3K4me2 and H3K4me1 levels at the KLK2 and FKBP5 promoters upon knockdown: Elevated levels
[4]; in the presence of R1881 (FIG. 3f, g)
  H3K4me2 and H3K4me1 levels at the KLK2 and FKBP5 promoters upon knockdown: reduces H3K4me2 and H3K4me1 levels to those observed in the absence of R1881

## 5′-GAACAUGAUCCAGACCUACAGCAAU-3′ (listed as RNA, chemistry not given here) [siRNA directed against PRK1, siRNA against Protein-kinase-C-related kinase 1 (PRK1), Invitrogen, reference compound]
[5]; siRNA transfection, with R1881 (FIG. 3d, e)
  ligand-dependent activation of PKCβI (S660ph) upon knockdown: blocked
[1]
  androgen-induced phosphorylation of H3T6 at the AREs of the KLK2 and FKBP5 promoters upon knockdown: abolished
[2]; siRNA transfection (FIG. 3d, e)
  presence of PKCβI on AR target promoters upon knockdown: does neither affect
[3]
  levels of endogenous AR upon knockdown: does neither affect

## C[C@]1(O)CC[C@H]2[C@@H]3CCC4=CC(=O)CCC4=C3C=C[C@@]21C [R1881, reference compound]
[5]; R1881 versus absence of ligand (FIG. 3b, c)
  phosphorylation at S660 of PKCβI at the KLK2 and FKBP5 promoters on addition of ligand: androgen-induced phosphorylation at 5660 of PKCβI
[1]; 1×10^−8 M R1881 versus absence of ligand (FIG. 3b, c)
  phosphorylation of H3T6 at the AREs of the KLK2 and FKBP5 promoters on addition of ligand: results in phosphorylation of H3T6
[4]; R1881 versus absence of ligand (FIG. 3f, g)
  levels of H3K4me2 and H3K4me1 at the KLK2 and FKBP5 promoters on addition of ligand: increased
